From patent EP0415776A2, “Indolobenzoquinoline derivatives, their preparation and their use as anti-arrhythmic drugs” (Sankyo Company Limited, priority 1989, dated 1991)
Counter-ions that a name gives are not always drawn.

Test system: arrhythmias caused by myocardial ischemia in dogs
Assay: arrhythmias caused by myocardial ischemia in dogs (glass bead injected into left coronary artery)
Type: in vivo, Male Beagles
Procedure: Male Beagles weighing 8 - 12 kg were anesthetized with sodium pentobarbital (30 mg/kg i.v.). The animal was placed in a supine position, and the left carotid artery was isolated from the surrounding tissue. A metal cannula was then introduced from the left carotid artery and its tip was placed at the coronary orifice. A glass bead having a diameter of 1.7 mm was injected through the metal cannula into the left coronary artery. The glass bead injection produced a ST segment elevation, which was followed by ventricular arrhythmias due to myocardial infarction.
The dog was used in a conscious state for 24 hours after myocardial ischemia developed, when the arrythmic ratio exceeded 70%. The arrhythmic ratio was calculated by dividing the number of arrhythmias by the total heart beats in one minute.
Figures 1 and 2 of the accompanying drawings show the course of the arrhythmias with time following a single intravenous administration of the compound of Example 1 and its racemate, respectively.

N[C@@H]1Cc2c3n(c4cccc(O)c24)C(=O)C[C@H]2CCC[C@@H]1[C@@H]32 [Example 1, (3aR,4R,12aR,12bS) 4-Amino-2,3,3a,4,5,12,12a,12b-octahydro-6-hydroxyindolo[3,2,1,-ij]benz[de]quinolin-11-(1 H)-one hydrochloride sesquihydrate] was tested, and the “suppressing arrhythmias, compared with racemate” value (Example 1 at 2.5 mg/kg i.v. versus racemate at 5.0 mg/kg i.v.) was “almost comparable with its racemate at 5.0 mg/kg i.v”, the “potency in anti-arrhythmic action relative to racemate” value (single i.v. administration, dogs, inferred from 2.5 mg/kg vs 5.0 mg/kg) was “about twice” and the “number of arrhythmias per minute” value (single intravenous administration, conscious dog 24 hours after myocardial ischemia developed, course with time, Figures 1 and 2) was “decreased the number of arrhythmias per minute”.
